Test results from patent US20250042866A1, “CRYSTAL FORM OF BLARCAMESINE HYDROCHLORIDE, METHOD FOR PREPARING SAME, AND USE THEROF” (CRYSTAL PHARMACEUTICAL (SUZHOU) CO., LTD., priority 2022, published 2025).
“Also recorded” adds a separate entry of the source.

Key:
Type in all cases: physicochemical
[1] = Storage stability of drug substance (HPLC purity and XRPD form); details: for chemical purity during storage: 40° C./75% RH and 60° C./75% RH
Method: Chemical purity and crystalline form were tested by HPLC and XRPD respectively.
Open: the sample was placed into a glass vial, and the vial was covered by aluminum foil with holes.
Sealed with desiccants: the sample was placed into a glass vial, and the vial was covered by aluminum foil with holes, then the vial was sealed into an aluminum foil bag with 1 g of silica gel desiccant.
An appropriate amount of Form CSIV of the present disclosure were stored under different conditions of 25° C./60% RH, 40° C./75% RH and 60° C./75% RH. Chemical purity and crystalline form were test by HPLC and XRPD respectively. […] Form CSIV is stable after storage under 40° C./75% RH condition for at least 6 months, indicating Form CSIV has good stability under accelerated condition. Form CSIV is stable after storage under 60° C./75% RH condition for at least 2 weeks, indicating Form CSIV has good stability under stress condition.

[2] = Light stability (HPLC purity and XRPD form); details: for Initial purity: before light exposure; for Purity / Solid form: light 8 k Lux, UV 1.5 w/m^2, 2 weeks; for Purity: HPLC; for Solid form: XRPD
Source text: An appropriate amount of Form CSIV of the present disclosure was placed in a light stability chamber with the following setting values: light: 8 k Lux, UV: 1.5 w/m^2.

[3] = Compressibility: tensile strength of compressed tablets; details: 80 mg, Φ6 mm round tooling, 3 kN, after 24 hours at room temperature; T=2H/πDL
Method: The samples were pressed by the ENERPAC single punch manual tablet press. […] The elastic recovery was completed after storage at room temperature for 24 hours, then the diameter (D) and thickness (L) of the tablet was measured by a caliper, and the hardness (H) was tested with a tablet hardness tester. Tensile strength of the powder was calculated with the following formula: T=2H/πDL. Under a certain force, the greater the tensile strength, the better the compressibility.

[4] = Flowability (compressibility index / Carr index); details: criteria of ICH Q4B Annex 13, by compressibility index
Method: The bulk density ρ0 was calculated with the formula “bulk density ρ0=powder mass/volume before tapped”. […] The tapped density pf was calculated with the formula “tapped density ρf=powder mass/volume after tapped”. The degree of compression (c), also known as Compressibility index or Carr index, was calculated based on the measured bulk density and tap density of the sample with the formula c=(ρf-ρ0)/ρf*100%.
The bulk density ρ0 was calculated with the formula “bulk density ρ0=powder mass/volume before tapped”. […] The tapped density pf was calculated with the formula “tapped density ρf=powder mass/volume after tapped”. The degree of compression (c), also known as Compressibility index or Carr index, was calculated based on the measured bulk density and tap density of the sample with the formula c=(pf-ρ0)/ρf*100%.

[5] = Stability upon mechanical force: ball milling; details: XRPD
[6] = Crystalline form stability in the formulation process; details: dry granulation simulation 5 ± 1 kN, blending, capsule filling; XRPD
[7] = Stability upon mechanical force: tableting under different pressures; details: XRPD
Method: An appropriate amount of Form CSII was compressed into tablets under different pressures with suitable tableting die. Crystalline form before and after tableting were tested by XRPD.
An appropriate amount of Form CSIII was compressed into tablets under different pressures with suitable tableting die. Crystalline form before and after tableting were tested by XRPD.

[8] = Hygroscopicity by dynamic vapor sorption (DVS); details: 25° C., cycle 0% RH-95% RH-0% RH, about 10 mg
Method: DVS data in the present disclosure were measured via an SMS (Surface Measurement Systems Ltd.) intrinsic DVS instrument. The instrument control software is DVS-Intrinsic control software. Typical Parameters for DVS test are as follows: • Temperature: 25° C. • Gas and flow rate: N2, 200 mL/min • RH range: 0% RH to 95% RH
The mass change at each relative humidity were recorded in a cycle of 0% RH-95% RH-0% RH.

[9] = Solubility in organic solvents, step-wise solvent addition; details: organic solvent or mixture, thermodynamic from solid; Ethyl acetate; room temperature; as mass of Compound I
Method: (§1) The weight of solid (m), the undissolved volume (v1) and the dissolved volume (v2) were recorded respectively.
as §1

[10] = 25° C./60% RH, long-term condition
[11] = 25° C./60% RH, sealed with desiccants, 6 months
[12] = 40° C./75% RH, accelerated condition
[13] = 40° C./75% RH, sealed with desiccants, 6 months
[14] = 60° C./75% RH, sealed with desiccants, 2 weeks
[15] = 60° C./75% RH, stress condition
[16] = 5 minutes at a vibration speed of 500 rpm
[17] = 25° C./60% RH, sealed with desiccants, 9 months

SMILES	time for which the drug substance is stable (crystalline state unchanged) [1, 10]	chemical purity during storage [1]	time for which the drug substance is stable (crystalline state unchanged) [1, 12]	Purity [1, 13] [%]	time for which the drug substance is stable (crystalline state unchanged) [1, 15]	Purity ([1]; Initial) [%]	Initial purity [2] [%]	Purity [2] [%]	Solid form [2]	Tensile strength [3] [MPa]	Flowability [4]	form change after ball milling [5, 16]	Purity ([1]; 25° C./60% RH, open, 9 months) [%]	Purity [1, 17] [%]	crystalline form before and after the formulation process [6]	Crystalline form after tableting ([7]; Pressure 5 kN)	Crystalline form after tableting ([7]; Pressure 10 kN)	Crystalline form after tableting ([7]; Pressure 20 kN)	Mass increase under 70% RH [8] [%]	also measured
CN(C)CC1CCOC1(c1ccccc1)c1ccccc1.CN(C)CC1CCOC1(c1ccccc1)c1ccccc1.Cl.Cl.O=C(O)CC(O)C(=O)O (racemic) [Form CSIV]	at least 6 months	above 99.9%	at least 6 months	99.93	at least 2 weeks	99.95	99.92	99.92	remains unchanged; also recorded: Form CSIV	0.705	Excellent (≤10)	no form change								Purity [1, 11]: 99.92%; Solid form [1, 11]: Form CSIV; Solid form [1, 13]: Form CSIV; Purity [1, 14]: 99.98%; Solid form [1, 14]: Form CSIV; Solid form ([1]; Initial): Form CSIV
CN(C)CC1CCOC1(c1ccccc1)c1ccccc1.Cl.O=C(O)CC(O)(CC(=O)O)C(=O)O (centres unmarked) [Form CSIII]	at least 9 months	above 99%	at least 3 months		at least 2 month	99.86	99.83	99.76	remains unchanged; also recorded: Form CSIII	0.707	Fair (16-20)		99.91	99.92	stable before and after the formulation process	Form CSIII	Form CSIII	Form CSIII		Purity ([1]; 40° C./75% RH, sealed with desiccants, 3 months): 99.91%; Purity ([1]; 60° C./75% RH, sealed with desiccants, 2 months): 99.86%; form change after ball milling ([5]; vibration speed of 300 rpm): no form change
CN(C)CC1CCOC1(c1ccccc1)c1ccccc1.CN(C)CC1CCOC1(c1ccccc1)c1ccccc1.Cl.Cl.O=C(O)C(O)C(O)C(=O)O (centres unmarked) [Form CSII]	at least 9 months	above 99.9%	at least 6 months	99.90		99.96	99.97	99.97	remains unchanged; also recorded: Form CSII	0.705		no form change	99.90	99.95	stable before and after the formulation process	Form CSII	Form CSII	Form CSII	0.24	Purity ([1]; 60° C./75% RH, sealed with desiccants, 1 month): 99.94%
CN(C)CC1CCOC1(c1ccccc1)c1ccccc1 (centres unmarked) [Form I in the prior art, tetrahydro-N,N-dimethyl-2,2-diphenyl-3-furanmethanamine, reference compound]										0.552	Poor								0.54	solubility [9]: < 1500 µg/mL
